A short description of the data set: Kinetic solubility by nephelometry. The data set is classed as physicochemical. Here is the method: Preliminary studies were conducted to assess the in vitro absorption, distribution, metabolism, and excretion (ADME) properties and in vivo mouse exposure of MMV1557817 following single oral dosing. Kinetic solubility was conducted using nephelometry based on a modification of a previously published method ([45]). Briefly, compound was dissolved in DMSO and spiked into either pH 6.5 phosphate buffer (to reflect the pH of the fasted state upper small intestine) or 0.01 M HCl (to reflect gastric pH 1.5–2) with a final DMSO concentration of 1% (vol/vol) and final concentrations ranging from 1 to 100 µg/mL. Samples were analyzed by nephelometry to determine the concentration above which precipitation occurred.

In brackets after ≈: the same amount, converted by molar mass.

One may read the kinetic solubility as solubility judged after dilution from a stock solution rather than from solid. For the molecule `CC(C)(C)CC(=O)NC(C(=O)NO)c1ccc(-c2cc(F)c(F)c(F)c2)cc1` (centres unmarked) [MMV1557817, N-(2-(hydroxyamino)−2-oxo-1-(3′,4′,5′-trifluoro-[1,1′-biphenyl]-4-yl)ethyl)-3,3-dimethylbutanamide], the solubility (kinetic) runs as follows: (pH 2.0 (0.01 M HCl)) 12.5 to 25 µg/mL (≈ 31.7 to 63.4 µM); (pH 6.5 phosphate buffer) 12.5 to 25 µg/mL (≈ 31.7 to 63.4 µM).
